Experimental data: US8017611B2, “Pyridine and pyrazine derivatives -083” (AstraZeneca AB, priority 2007, dated 2011)

Biological target: T1, recombinant Axl tyrosine kinase (Homo sapiens, UniProt P30530)
T1 construct: encompassing amino acids 473 to 894 of Axl; GST (N); made in house; host or cells: SF126 insect cells
T1 sequence (P30530 473-894): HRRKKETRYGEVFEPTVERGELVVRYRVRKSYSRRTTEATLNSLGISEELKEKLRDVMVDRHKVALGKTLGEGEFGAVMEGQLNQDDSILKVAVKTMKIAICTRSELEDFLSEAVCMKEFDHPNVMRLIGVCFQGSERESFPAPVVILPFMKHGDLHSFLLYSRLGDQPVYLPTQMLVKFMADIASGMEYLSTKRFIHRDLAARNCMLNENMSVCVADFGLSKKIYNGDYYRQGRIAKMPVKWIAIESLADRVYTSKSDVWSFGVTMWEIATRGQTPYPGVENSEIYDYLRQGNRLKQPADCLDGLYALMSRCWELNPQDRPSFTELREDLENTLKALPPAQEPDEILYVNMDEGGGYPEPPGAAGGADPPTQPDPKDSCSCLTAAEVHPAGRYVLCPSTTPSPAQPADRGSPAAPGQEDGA
Test: In vitro Axl kinase assay (AlphaScreen), Test (a)
Type: biochemical
Settings: test compound at 1 μM; first value quoted

SMILES | % Axl tyrosine kinase inhibition at 1 μM concentration [%]
Nc1ncc(-c2ccc(N3CCNCC3)cc2)nc1-c1nc2ccccc2o1 [Example 20.11] | 100.0
CN(C)S(=O)(=O)c1ccc(-c2cnc(N)c(-c3nc4ccccc4o3)n2)cc1 [Example 20.12] | 92.7
CCS(=O)(=O)c1cccc(-c2cnc(N)c(-c3nc4ccccc4o3)n2)c1 [Example 20.13] | 97.2
CN(C)c1cccc(-c2cnc(N)c(-c3nc4ccccc4o3)n2)c1 [Example 20.15] | 96.9
N#CCc1cccc(-c2cnc(N)c(-c3nc4ccccc4o3)n2)c1 [Example 20.16] | 99.6
COCc1cccc(-c2cnc(N)c(-c3nc4ccccc4o3)n2)c1 [Example 20.17] | 98.8
CS(=O)(=O)Oc1cccc(-c2cnc(N)c(-c3nc4ccccc4o3)n2)c1 [Example 20.18] | 98.1
N#CCc1ccc(-c2cnc(N)c(-c3nc4ccccc4o3)n2)cc1 [Example 20.19] | 98.3
N#CCC1(n2cc(-c3cnc(N)c(-c4nc5ccccc5o4)c3)cn2)CCNCC1 [Example 25.1] | 95.0
COc1nn(C2CCNCC2)cc1-c1cnc(N)c(-c2nc3ccccc3o2)c1 [Example 25.2] | 100.0
CCOc1nn(C2CCNCC2)cc1-c1cnc(N)c(-c2nc3ccccc3o2)c1 [Example 25.3] | 100.0
CN1CCN(c2ccc(-c3cnc(N)c(-c4nc5ncccc5o4)c3)cc2)CC1 [Example 25.7] | 99.1
COc1cc(-c2cnc(N)c(-c3nc4ncccc4o3)c2)ccc1N1CCNCC1 [Example 25.8] | 99.8
CN1CCN(c2ccc(-c3cnc(N)c(-c4nc5cccnc5o4)c3)cc2)CC1 [Example 25.10] | 97.7
CN1CCN(c2ncc(-c3cnc(N)c(-c4nc5cccnc5o4)c3)s2)CC1 [Example 25.12] | 38.2
Cc1nn(C2CCNCC2)cc1-c1cnc(N)c(-c2nc3ncccc3o2)c1 [Example 25.16] | 99.9
CN1CCCC(Cn2cc(-c3cnc(N)c(-c4nc5ccccc5o4)c3)cn2)C1 (stereo not shown) [Example 27.1] | 100.0
Nc1ncc(-c2cnn(CCCN3CCCC3)c2)cc1-c1nc2ccccc2o1 [Example 27.2] | 99.9
Nc1ncc(-c2cnn(CCN3CCCC3)c2)cc1-c1nc2ccccc2o1 [Example 27.3] | 96.4
CN(C)CCCn1cc(-c2cnc(N)c(-c3nc4ccccc4o3)c2)cn1 [Example 27.4] | 99.2

SMILES | % Axl tyrosine kinase inhibition at 1 μM concentration [%]
CN(C)CCn1cc(-c2cnc(N)c(-c3nc4ccccc4o3)c2)cn1 [Example 27.5] | 98.4
CN1C2CCC1CC(n1cc(-c3cnc(N)c(-c4nc5ccccc5o4)c3)cn1)C2 (stereo not shown) [Example 27.6] | 99.9
Nc1ncc(-c2cnn(C3CCOCC3)c2)cc1-c1nc2ccccc2o1 [Example 27.7] | 99.8
Nc1ncc(-c2cnn(C3CNC3)c2)cc1-c1nc2ccccc2o1 [Example 29.2] | 99.8
Nc1ncc(-c2cnn(C3CCNC3)c2)cc1-c1nc2ccccc2o1 (stereo not shown) [Example 29.3] | 99.9
Nc1ncc(-c2cnn(CC3CNC3)c2)cc1-c1nc2ccccc2o1 [Example 29.4] | 99.1
Nc1ncc(-c2cnn(C3CCCNC3)c2)cc1-c1nc2ccccc2o1 (stereo not shown) [Example 29.6] | 99.9
Nc1ncc(-c2cnn(CC3CCNCC3)c2)cc1-c1nc2ccccc2o1 [Example 29.7] | 99.8
Cc1nn(C2CCNCC2)c(C)c1-c1cnc(N)c(-c2nc3ccccc3o2)c1 [Example 29.8] | 88.7
Nc1ncc(-c2cnn(CCCN3CCC(O)C3)c2)cc1-c1nc2ccccc2o1 (stereo not shown) [Example 31.1] | 100.0
Nc1ncc(-c2cnn(CCCN3CCC[C@@H]3CO)c2)cc1-c1nc2ccccc2o1 [Example 31.2] | 99.9
CN1CCN(CCCn2cc(-c3cnc(N)c(-c4nc5ccccc5o4)c3)cn2)CC1 [Example 31.5] | 100.0
Nc1ncc(-c2cnn(CCCN3CCC3)c2)cc1-c1nc2ccccc2o1 [Example 31.6] | 99.7
Nc1ncc(-c2cnn(CCN3CCC[C@@H]3CO)c2)cc1-c1nc2ccccc2o1 [Example 31.8] | 99.7
Nc1ncc(-c2cnn(CCN3CCC(O)CC3)c2)cc1-c1nc2ccccc2o1 [Example 31.9] | 99.8
Nc1ncc(-c2cnn(CCN3CCC3)c2)cc1-c1nc2ccccc2o1 [Example 31.10] | 94.3
CC(=O)N1CCC(n2cc(-c3cnc(N)c(-c4nc5ccccc5o4)c3)cn2)CC1 [Example 34.1] | 99.8
Nc1ncc(-c2cnn(C3CCN(C(=O)CO)CC3)c2)cc1-c1nc2ccccc2o1 [Example 34.2] | 100.0
CC(O)C(=O)N1CCC(n2cc(-c3cnc(N)c(-c4nc5ccccc5o4)c3)cn2)CC1 (stereo not shown) [Example 34.3] | 99.7

Same assay, conditions: test compound at 1 μM; first value quoted; read-out: % Axl tyrosine kinase inhibition at 1 μM concentration

SMILES | inhibition at 1 µM [%]
Cc1nn(C2CCNCC2)cc1-c1cnc(N)c(-c2nc3ccccc3o2)n1 [Example 20.20, 3-(1,3-benzoxazol-2-yl)-5-[3-methyl-1-(4-piperidyl)pyrazol-4-yl]pyrazin-2-amine] | 99.9
Cc1nn(C2CCN(C(=O)OC(C)(C)C)CC2)cc1-c1cnc(N)c(-c2nc3ccccc3o2)c1 [Example 21, Tert-butyl 4-[4-[6-amino-5-(1,3-benzoxazol-2-yl)-3-pyridyl]-3-methyl-pyrazol-1-yl]piperidine-1-carboxylate] | 9.7
Cc1c(-c2cnc(N)c(-c3nc4ccccc4o3)c2)cnn1C1CCNCC1 [Example 24, 3-(1,3-benzoxazol-2-yl)-5-[5-methyl-1-(4-piperidyl)pyrazol-4-yl]pyridin-2-amine] | 100
CN1CCN(c2ncc(-c3cnc(N)c(-c4nc5ccccc5o4)c3)s2)CC1 [Example 25.5, 3-(1,3-benzoxazol-2-yl)-5-[2-(4-methylpiperazin-1-yl)thiazol-5-yl]pyridin-2-amine] | 82.9
COc1cc(N2CCN(C)CC2)ccc1-c1cnc(N)c(-c2nc3ncccc3o2)c1 [Example 25.6, 5-[2-methoxy-4-(4-methylpiperazin-1-yl)phenyl]-3-oxazolo[4,5-b]pyridin-2-yl-pyridin-2-amine] | 99.5
Nc1ncc(-c2cn(C3CCNCC3)nc2CO)cc1-c1nc2ccccc2o1 [Example 25.13, [4-[6-amino-5-(1,3-benzoxazol-2-yl)-3-pyridyl]-1-(4-piperidyl)pyrazol-3-yl]methanol] | 100
COCc1nn(C2CCNCC2)cc1-c1cnc(N)c(-c2nc3ccccc3o2)c1 [Example 25.14, 3-(1,3-benzoxazol-2-yl)-5-[3-(methoxymethyl)-1-(4-piperidyl)pyrazol-4-yl]pyridin-2-amine] | 100
Cc1nn(C2CCNCC2)cc1-c1cnc(N)c(-c2nc3c(F)cccc3o2)c1 [Example 25A, 3-(4-fluoro-1,3-benzoxazol-2-yl)-5-[3-methyl-1-(4-piperidyl)pyrazol-4-yl]pyridin-2-amine] | 100
Nc1ncc(-c2cnn(CCN3CCOCC3)c2)cc1-c1nc2ccccc2o1 [Example 26, 3-(1,3-benzoxazol-2-yl)-5-[1-(2-morpholinoethyl)pyrazol-4-yl]pyridin-2-amine] | 99.3
Nc1ncc(-c2cnn(CCO)c2)cc1-c1nc2ccccc2o1 [Example 28, 2-[4-[6-amino-5-(1,3-benzoxazol-2-yl)-3-pyridyl]pyrazol-1-yl]ethanol] | 99.3
Nc1ncc(-c2cnn(CCCO)c2)cc1-c1nc2ccccc2o1 [Example 29.1, 3-[4-[6-amino-5-(1,3-benzoxazol-2-yl)-3-pyridyl]pyrazol-1-yl]propan-1-ol] | 99.7
CN1CCN(CCn2cc(-c3cnc(N)c(-c4nc5ccccc5o4)c3)cn2)CC1 [Example 30, 3-(1,3-benzoxazol-2-yl)-5-[1-[2-(4-methylpiperazin-1-yl)ethyl]pyrazol-4-yl]pyridin-2-amine] | 99.8
Nc1ncc(-c2cnn(CCN3CCNCC3)c2)cc1-c1nc2ccccc2o1 [Example 32, 3-(1,3-benzoxazol-2-yl)-5-[1-(2-piperazin-1-ylethyl)pyrazol-4-yl]pyridin-2-amine] | 99.9
COCC(=O)N1CCC(n2cc(-c3cnc(N)c(-c4nc5ccccc5o4)c3)cn2)CC1 [Example 33, 1-[4-[4-[6-amino-5-(1,3-benzoxazol-2-yl)-3-pyridyl]pyrazol-1-yl]-1-piperidyl]-2-methoxy-ethanone] | 99.9
COc1ccc2nc(-c3cc(-c4cnn(C5CCN(C)CC5)c4)cnc3N)oc2c1 [Example 35, 3-(6-methoxy-1,3-benzoxazol-2-yl)-5-[1-(1-methyl-4-piperidyl)pyrazol-4-yl]pyridin-2-amine] | 99.6

Same assay, conditions: test compound at 30 μM; read-out: % of Axl tyrosine kinase activity inhibited at a concentration of 30 μM

SMILES | inhibition at 30 µM [%]
Cc1nn(C2CCN(C(=O)OC(C)(C)C)CC2)cc1-c1cnc(N)c(-c2nc3ccccc3o2)c1 [Example 21, Tert-butyl 4-[4-[6-amino-5-(1,3-benzoxazol-2-yl)-3-pyridyl]-3-methyl-pyrazol-1-yl]piperidine-1-carboxylate] | 76.4
